Biological target: T1, catechol-O-methyltransferase (COMT) (Homo sapiens, UniProt P21964)
T1 construct: M51A variant) was expressed in HEK 293F cells
T1 sequence (P21964 52-271 limits assumed): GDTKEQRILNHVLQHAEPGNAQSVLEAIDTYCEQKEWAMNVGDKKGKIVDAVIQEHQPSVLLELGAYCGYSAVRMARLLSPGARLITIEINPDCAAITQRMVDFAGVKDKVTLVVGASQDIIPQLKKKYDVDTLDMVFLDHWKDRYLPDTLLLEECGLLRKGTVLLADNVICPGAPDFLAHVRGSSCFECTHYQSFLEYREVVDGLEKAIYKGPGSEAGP
Test: COMT inhibition assay (HTRF, production of S-adenosyl homocysteine)
Type: biochemical
Conditions: recombinant human COMT, HTRF SAH production; MB-COMT or S-COMT not stated for Table 1
Method: The ability of compounds to inhibit the activity of catechol-O-methyltransferase (COMT) was determined by a homogenous time-resolved fluorescent (HTRF) assay (Lina et al, 2012; kit from CisBio, Codolet, France). This assay measures the production of S-adenosyl homocysteine (SAH) from the methyl donor S-adenosyl methionine. Recombinant human membrane bound COMT (MB-COMT; M51A variant) was expressed in HEK 293F cells using 293Fectin (Life Technologies, Gent, Belgium) and membranes prepared. The membranes were re-suspended in buffer (20 mM Tris/HCl pH 7; 10 mM glycerol; 2 mM MgCl2; 10 mM NaCl), aliquoted and stored at −80° C. Recombinant human soluble COMT(S-COMT), Va1158 variant and a hexa-His tag on the N-terminus, was purified using Ni-NTA chromatography, the His tag removed and stored in buffer as above.
For the human MB-COMT assay, membranes (62 ng/well) were incubated with SAM (20 μM final, CisBio) and dopamine (1.5 μM final; Sigma H8502, Diegem, Belgium) in the presence or absence of varying concentrations (typically 10 concentrations ranging from 10 μM to 0.1 nM) of compound for 40 min at 37° C. in 384-well microtitre plates (10 μl per well final volume). The reaction was terminated by the addition of acylation buffer and the amount of SAH produced determined according to manufacturer's instructions. Specific inhibition as that inhibited by a high concentration of tolcapone (10 μM; synthesised at UCB) and all experiments were validated using a control curve to tolcapone.
The human S-COMT assay was performed as above except that 0.15 ng enzyme/well was incubated with SAM (20 μM final) and dopamine (100 μM final) for 15 min at 37° C. and SAH production determined.
HTRF readings were performed using a Perkin Elmer Envision and results expressed as concentration of SAH produced using a standard curve. Results were analysed using non-linear regression to the 4-parameter logistic equation and pIC50 (−log 10 concentration of drug which inhibits enzyme activity/SAH production by 50%) determined.

Row | Structure (SMILES) | Activity range (pIC50, COMT inhibition)
1 | CC(C)(C)c1ccc(S(=O)(=O)c2ccc(O)c3ncccc23)cc1 [Example 5, 5-(4-tert-butylphenyl)sulfonylquinolin-8-ol] | +++ (a pIC50 of above about 7)
2 | CN1CCN(S(=O)(=O)c2ccc(O)c3ncccc23)CC1 [Example 60, 5-(4-methylpiperazin-1-yl)sulfonylquinolin-8-ol] | ++ (a pIC50 of from about great than 6 to 7)
3 | CN(Cc1cccnc1)S(=O)(=O)c1ccc(O)c2ncccc12 [Example 54, 8-hydroxy-N-methyl-N-(3-pyridylmethyl)quinoline-5-sulfonamide] | +++ (a pIC50 of above about 7)
4 | O=S(=O)(c1ccccn1)c1ccc(O)c2ncccc12 [Example 16, 5-(2-pyridylsulfonyl)quinolin-8-ol] | +++ (a pIC50 of above about 7)
5 | O=S(=O)(c1ccc(O)c2ncccc12)N1CCN(Cc2ccccc2)CC1 [Example 43, 5-(4-benzylpiperazin-1-yl)sulfonylquinolin-8-ol] | +++ (a pIC50 of above about 7)
6 | O=S(=O)(c1ccc(O)c2ncccc12)N1CCCC1c1cccnc1 (stereo not drawn) [Example 72, 5-[2-(3-pyridyl)pyrrolidin-1-yl]sulfonylquinolin-8-ol] | ++ (a pIC50 of from about great than 6 to 7)
7 | COC(=O)N1CCN(S(=O)(=O)c2ccc(O)c3ncccc23)CC1 [Example 88, methyl 4-[(8-hydroxy-5-quinolyl)sulfonyl]piperazine-1-carboxylate] | +++ (a pIC50 of above about 7)
8 | C[C@H]1CCCN1S(=O)(=O)c1cc(Cl)c(O)c2ncccc12 [Example 118, 7-chloro-5-[(2S)-2-methylpyrrolidin-1-yl]sulfonyl-quinolin-8-ol] | ++ (a pIC50 of from about great than 6 to 7)
9 | O=S(=O)(c1ccc(O)c2ncccc12)N1CCCC1c1ccccc1 (stereo not drawn) [Example 58, 5-(2-phenylpyrrolidin-1-yl)sulfonylquinolin-8-ol] | +++ (a pIC50 of above about 7)
10 | CN(Cc1ccc(C(F)(F)F)cc1)S(=O)(=O)c1ccc(O)c2ncccc12 [Example 65, N-[(4-(trifluoromethyl)phenyl)methyl]-8-hydroxy-N-methyl-quinoline-5-sulfonamide] | +++ (a pIC50 of above about 7)
11 | O=S(=O)(c1ccc(O)c2ncccc12)N1CCc2cccnc2C1 [Example 67, 5-(6,8-dihydro-5H-1,7-naphthyridin-7-ylsulfonyl)quinolin-8-ol] | +++ (a pIC50 of above about 7)
12 | O=S(=O)(c1ccc(O)c2ncccc12)N1CCCC1c1ccc(F)cc1 (stereo not drawn) [Example 74, 5-[2-(4-fluorophenyl)pyrrolidin-1-yl]sulfonylquinolin-8-ol] | +++ (a pIC50 of above about 7)
13 | O=S(=O)(c1ccc(O)c2ncccc12)N1CCC(c2ccc(F)cc2)C1 (stereo not drawn) [Example 62, 5-(3-(4-fluorophenyl)pyrrolidin-1-yl)sulfonylquinolin-8-ol] | +++ (a pIC50 of above about 7)
14 | O=S(=O)(c1ccc2ccccc2c1)c1ccc(O)c2ncccc12 [Example 12, 5-(2-naphthylsulfonyl)quinolin-8-ol] | +++ (a pIC50 of above about 7)
15 | O=S(=O)(c1ccccc1)c1ccc(O)c2ncccc12 [Example 22, 5-(benzenesulfonyl)quinolin-8-ol] | +++ (a pIC50 of above about 7)
16 | CN(Cc1ccccc1F)S(=O)(=O)c1ccc(O)c2ncccc12 [Example 52, N-[(2-fluorophenyl)methyl]-8-hydroxy-N-methyl-quinoline-5-sulfonamide] | +++ (a pIC50 of above about 7)
17 | CCS(=O)(=O)c1ccc(O)c2ncccc12 [Example 33, 5-ethylsulfonylquinolin-8-ol] | + (a pIC50 of from about 4.5 to 6)
18 | O=S(=O)(c1ccc(O)c2ncccc12)c1cccc2c1ncn2Cc1ccccc1Cl [Example 28, 5-[1-[(2-chlorophenyl)methyl]benzimidazol-4-yl]sulfonylquinolin-8-ol] | +++ (a pIC50 of above about 7)

Source: patent US10035799B2, “COMT inhibiting methods and compositions” (Lieber Institute for Brain Development, priority 2015, dated 2018)
